# Assay results published in patent USRE46943E1, “Radioprotector compounds and methods” (PETER MACCALLUM CANCER INSTITUTE, priority 2010, dated 2018).
# pIC50: −log10 of the molar value.
# What was measured:
# [1] = system: transformed human keratinocyte cell line (FEP 1811); experiment: Clonogenic survival cell culture assay for cytotoxicity; assay type: cell-based; details: Homo sapiens, Keratinocyte, light or radiation study; un-irradiated keratinocytes, one hour drug exposure, colonies counted after eight days; read-out: C50 (concentration of radioprotector that results in 50% clonogenic survival)
# Description: • i. […] In appropriate cases, tautomers are drawn to illustrate potential hydrogen-bond donating configurations into the minor groove of DNA. • ii. 2-Amino-4-(5′-(4″-methylpiperazin-1″-yl)benzimidazol-2′-yl)aniline was prepared by hydrogenation of 4-(5′-(4″-methylpiperazin-1″-yl)benzimidazol-2′-yl)-2-nitroaniline, using a modification of the method of Kelly et al, Aust. […] 2-Amino-4-(5′-(piperidin-1″-yl)benzimidazol-2′-yl)aniline was prepared by hydrogenation of 2-nitro-4-(5′-(piperidin-1″-yl)benzimidazol-2′-yl)aniline, using a modification of the method of Kelly et al, Aust. […] Ethyl 4-amino-3-nitrobenzenecarboximidate hydrochloride was prepared by reaction of 4-amino-3-nitrobenzonitrile with dry HCl gas in ethanol, using the method of Kelly et al, Aust. […] 5-(4′-Methylpiperazin-1′-yl)-2-nitroaniline was prepared using a modification of the method of Kelly et al, Aust. […] The following chemicals were obtained from the chemical suppliers indicated: 2-furaldehyde (Aldrich), 2-pyridinecarboxaldehyde (Aldrich), 3-fluoropyridine-2-carbaldehyde (Maybridge), 3-trifluoromethylpyridine-2-carboxaldehyde (Apollo Scientific), 6-methyl-2-pyridinecarboxaldehyde (Matrix Scientific), 5-methylpyridine-2-carbonitrile (Apollo Scientific), 4-methyl-2-pyridinecarbonitrile (Aldrich), 4-chloro-2-pyridinecarbonitrile (Aldrich), 4-methoxypicolinonitrile (Combi-Blocks), pyrazinecarbonitrile (Aldrich), 2-quinolinecarbonitrile (Aldrich), 3-isoquinolinecarbonitrile (Aldrich), 1-isoquinolinecarboxylic acid (Aldrich), indazole-3-carboxylic acid (Aldrich), 2-hydroxynicotinic acid (Aldrich), 4-hydroxypiperidine (Aldrich), 1-methylhomopiperazine (Aldrich), 3-hydroxypiperidine (Aldrich), 4-(N-BOC-amino)piperidine (Aldrich), 4-methoxypiperidine (Acros), 4-methyl-3-nitrobenzonitrile (Aldrich), 5-chloro-2-nitroaniline (Aldrich), 2-cyanopyridine (Aldrich), methyl 4-amino-2-methoxybenzoic acid (Aldrich), 4-(trifluoromethyl)-2-pyridinecarbonitrile (Matrix Scientific), cis-2,6-dimethylmorphoiline (Acros), 5-(trifluoromethyl)-2-pyridinecarbonitrile (Advanced Chemical Intermediates) and 5-fluoro-2-pyridinecarbonitrile (Advanced Chemical Intermediates). • ix. […] Melting points were determined using an Electrothermal melting point apparatus, and are uncorrected. […] The abbreviations s for singlet, d for doublet, t for triplet, q for quartet, br for broad and m for muitiplet were used in the assignments of multiplicity. A value approximating the centre of a multiplet is quoted. […] The addition of a few drops of acetic acid to methanol-d4 solutions was used to enhance solubility for the acquisition of ^13C nmr spectra. Mass spectra were recorded on a Micromass Quattro II mass spectrometer and accurate mass analyses were carried out by the School of Chemistry at the University of Melbourne on a Finnigan LTQ-FT model high resolution mass spectrometer. Thin layer chromatography (TLC) was carried out using Merck silica gel 60 F254 aluminium sheets or Merck neutral aluminium oxide 150 F254 sheets. Flash column chromatography was carried out using Ajax silica gel 230-400 mesh. • xi. […] The details are described in detail in Martin et al (4) (the disclosure of which is included herein in its entirety by way of reference), but briefly, mid-log phase monolayer cultures are incubated with various concentrations of the test drugs for one hour, after which the monolayers are washed and dispersed into single cell suspensions using pronase, and finally appropriate numbers of cells are dispensed into Petri dishes. Colonies are counted after eight days incubation. […] The irradiation (with a dose rate of 0.6 Gy per minute) is started 30 minutes after addition of the test drug. After completion of irradiation, incubation of cultures is continued until the total time of exposure to the drug reaches 60 minutes. Cultures are then washed and plated for clonogenic survival as described for the cytotoxicity experiments.
# [2] = system: transformed human keratinocyte cell line (FEP 1811); experiment: Clonogenic survival cell culture assay for radioprotective activity (12 Gy 137Cs gamma irradiation); assay type: cell-based; details: 12 Gy; for DMF10 (dose modification factor at a concentration of 10 microM of radioprotector): 10 microM radioprotector; for DMFm (dose modification factor at maximum protection): DMF=Dp/Dc at survival level Sm; for PF (protection factor = Sm/So): survival at maximum protection vs irradiation only
# From the text: PF is defined as a ratio of survival at maximum protection Sm and survival after irradiation only So: PF=Sm/So. DMF is defined as a ratio of doses that result in survival level of Sm in the presence Dp and the absence Dc of radioprotector: DMF=Dp/Dc. DMF10 is define in a similar way except that instead of Sm a survival at 10 microM of radioprotector is used.
# PF (Protection Factor) is defined as a ratio of survival at maximum protection Sm and survival after irradiation only So:PF=Sm/So. DMF (Dose Modification Factor) is defined as a ratio of doses that result in survival level of Sm in the presence (Dp) and the absence (Dc) of radioprotector: DMF=Dp/Dc. DMF10 is defined in a similar way except that instead of Sm a survival at 10 microM of radioprotector is used.
# • i. […] In appropriate cases, tautomers are drawn to illustrate potential hydrogen-bond donating configurations into the minor groove of DNA. • ii. 2-Amino-4-(5′-(4″-methylpiperazin-1″-yl)benzimidazol-2′-yl)aniline was prepared by hydrogenation of 4-(5′-(4″-methylpiperazin-1″-yl)benzimidazol-2′-yl)-2-nitroaniline, using a modification of the method of Kelly et al, Aust. […] 2-Amino-4-(5′-(piperidin-1″-yl)benzimidazol-2′-yl)aniline was prepared by hydrogenation of 2-nitro-4-(5′-(piperidin-1″-yl)benzimidazol-2′-yl)aniline, using a modification of the method of Kelly et al, Aust. […] Ethyl 4-amino-3-nitrobenzenecarboximidate hydrochloride was prepared by reaction of 4-amino-3-nitrobenzonitrile with dry HCl gas in ethanol, using the method of Kelly et al, Aust. […] 5-(4′-Methylpiperazin-1′-yl)-2-nitroaniline was prepared using a modification of the method of Kelly et al, Aust. […] The following chemicals were obtained from the chemical suppliers indicated: 2-furaldehyde (Aldrich), 2-pyridinecarboxaldehyde (Aldrich), 3-fluoropyridine-2-carbaldehyde (Maybridge), 3-trifluoromethylpyridine-2-carboxaldehyde (Apollo Scientific), 6-methyl-2-pyridinecarboxaldehyde (Matrix Scientific), 5-methylpyridine-2-carbonitrile (Apollo Scientific), 4-methyl-2-pyridinecarbonitrile (Aldrich), 4-chloro-2-pyridinecarbonitrile (Aldrich), 4-methoxypicolinonitrile (Combi-Blocks), pyrazinecarbonitrile (Aldrich), 2-quinolinecarbonitrile (Aldrich), 3-isoquinolinecarbonitrile (Aldrich), 1-isoquinolinecarboxylic acid (Aldrich), indazole-3-carboxylic acid (Aldrich), 2-hydroxynicotinic acid (Aldrich), 4-hydroxypiperidine (Aldrich), 1-methylhomopiperazine (Aldrich), 3-hydroxypiperidine (Aldrich), 4-(N-BOC-amino)piperidine (Aldrich), 4-methoxypiperidine (Acros), 4-methyl-3-nitrobenzonitrile (Aldrich), 5-chloro-2-nitroaniline (Aldrich), 2-cyanopyridine (Aldrich), methyl 4-amino-2-methoxybenzoic acid (Aldrich), 4-(trifluoromethyl)-2-pyridinecarbonitrile (Matrix Scientific), cis-2,6-dimethylmorphoiline (Acros), 5-(trifluoromethyl)-2-pyridinecarbonitrile (Advanced Chemical Intermediates) and 5-fluoro-2-pyridinecarbonitrile (Advanced Chemical Intermediates). • ix. […] Melting points were determined using an Electrothermal melting point apparatus, and are uncorrected. […] The abbreviations s for singlet, d for doublet, t for triplet, q for quartet, br for broad and m for muitiplet were used in the assignments of multiplicity. A value approximating the centre of a multiplet is quoted. […] The addition of a few drops of acetic acid to methanol-d4 solutions was used to enhance solubility for the acquisition of ^13C nmr spectra. Mass spectra were recorded on a Micromass Quattro II mass spectrometer and accurate mass analyses were carried out by the School of Chemistry at the University of Melbourne on a Finnigan LTQ-FT model high resolution mass spectrometer. Thin layer chromatography (TLC) was carried out using Merck silica gel 60 F254 aluminium sheets or Merck neutral aluminium oxide 150 F254 sheets. Flash column chromatography was carried out using Ajax silica gel 230-400 mesh. • xi.
Structure (SMILES),pIC50 [1],DMF10 (dose modification factor at a concentration of 10 microM of radioprotector) [2],DMFm (dose modification factor at maximum protection) [2],PF (protection factor = Sm/So) [2],melting point
"CN1CCN(c2ccc3nc(-c4ccc5nc(-c6cnccn6)[nH]c5c4)[nH]c3c2)CC1 [Example 12, 2-(5′-(5″-(4′″-Methylpiperazin-1′″-yl)benzimidazol-2″-yl)benzimidazol-2′-yl)pyrazine]",4.27,1.15,1.29,6.5,175 °C (dec.)
"CN1CCN(c2ccc3nc(-c4ccc5nc(-c6cc7ccccc7cn6)[nH]c5c4)[nH]c3c2)CC1 [Example 14, 3-(5′-(5″-(4′″-Methylpiperazin-1′″-yl)benzimidazol-2″-yl)benzimidazol-2′-yl)isoquinoline]",4.59,2.34,2.45,25.1,224 to 229 °C
"CN1CCN(c2ccc3nc(-c4ccc5nc(-c6nccc7ccccc67)[nH]c5c4)[nH]c3c2)CC1 [Example 15, 1-(5′-(5″-(4′″-Methylpiperazin-1′″-yl)benzimidazol-2″-yl)benzimidazol-2′-yl)isoquinoline]",4.57,1.70,1.85,36.9,214 to 217 °C
"CN1CCN(c2ccc3nc(-c4ccc5nc(-c6n[nH]c7ccccc67)[nH]c5c4)[nH]c3c2)CC1 [Example 16, 3-(5′-(5″-(4′″-Methylpiperazin-1′″-yl)benzimidazol-2″-yl)benzimidazol-2′-yl)indazole]",4.39,1.78,2.16,18.3,235 °C (dec.)
"CN1CCN(c2ccc3nc(-c4ccc5nc(-c6ccc[nH]c6=O)[nH]c5c4)[nH]c3c2)CC1 [Example 18, 3-(5′-(5″-(4′″-Methylpiperazin-1′″-yl)benzimidazol-2″-yl)benzimidazol-2′-yl)pyridin-2(1H)-one]",4.18,1.00,1.01,1.1,244 to 248 °C
"c1ccc2cc(-c3nc4ccc(-c5nc6ccc(N7CCOCC7)cc6[nH]5)cc4[nH]3)ncc2c1 [Example 20, 3-(5′-(5″-Morpholinobenzimidazol-2″-yl)benzimidazol-2′-yl)isoquinoline]",3.76,1.52,1.57,11.4,202 °C (dec.)
"Cc1ccnc(-c2nc3ccc(-c4nc5ccc(N6CCOCC6)cc5[nH]4)cc3[nH]2)c1 [Example 21, 2-(5′-(5″-Morpholinobenzimidazol-2″-yl)benzimidazol-2′-yl)-4-methylpyridine]",3.67,1.47,1.77,18.2,214 to 230 °C
"OC1CCN(c2ccc3nc(-c4ccc5nc(-c6ccccn6)[nH]c5c4)[nH]c3c2)CC1 [Example 22, 2-(5′-(5″-(4′″-Hydroxypiperidin-1′″-yl)benzimidazol-2″-yl)benzimidazol-2′-yl)pyridine]",3.58,1.47,2.20,21.3,226 to 229 °C
"c1ccc(-c2nc3ccc(-c4nc5ccc(N6CCCCC6)cc5[nH]4)cc3[nH]2)nc1 [Example 24, 2-(5′-(5″-(Piperidin-1′″-yl)benzimidazol-2″-yl)benzimidazol-2′-yl)pyridine]",4.62,1.35,1.42,7.5,196 to 203 °C
"CN1CCCN(c2ccc3nc(-c4ccc5nc(-c6ccccn6)[nH]c5c4)[nH]c3c2)CC1 [Example 25, 2-(5′-(5″-(4′″-Methyl-1′″,4′″-diazepan-1′″-yl)benzimidazol-2″-yl)benzimidazol-2′-yl)pyridine]",3.91,1.77,2.14,16.7,185 °C (dec.)
"OC1CCCN(c2ccc3nc(-c4ccc5nc(-c6ccccn6)[nH]c5c4)[nH]c3c2)C1 (stereo not shown) [Example 26, 2-(5′-(5″-(3′″-Hydroxypiperidin-1′″-yl)benzimidazol-2″-yl)benzimidazol-2′-yl)pyridine]",4.11,1.33,1.90,14.7,278 to 282 °C
